Data: US20230049231A1 (priority 2019, published 2023)
pIC50: −log10 of the molar value.

Tests used:
Kv1.3 potassium channel = biological target: T1, Kv1.3 potassium channel (Homo sapiens, UniProt P22001); assay: Kv1.3 potassium channel blocker activity, automated whole-cell patch clamp (Patchliner); assay type: cell-based
T1 construct: expressed in transfected cells
Description: This assay is used to evaluate the disclosed compounds' activities as Kv1.3 potassium channel blockers.
CHO-K1 cells stably expressing Kv1.3 were grown in DMEM containing 10% heat-inactivated FBS, 1 mM sodium pyruvate, 2 mM L-glutamine and G418 (500 μg/ml). Cells were grown in culture flasks at 37° C. in a 5% CO2-humidified incubator.
(§1) The cells were bathed in an extracellular solution containing 140 mM NaCl, 4 mM KCl, 2 mM CaCl2), 1 mM MgCl2, 5 mM glucose, and 10 mM HEPES; pH adjusted to 7.4 with NaOH; 295-305 mOsm. The internal solution contained 50 mM KCl, 10 mM NaCl, 60 mM KF, 20 mM EGTA, and 10 mM HEPES; pH adjusted to 7.2 with KOH; 285 mOsm. All compounds were dissolved in DMSO at 30 mM. Compound stock solutions were freshly diluted with external solution to concentrations of 30 nM, 100 nM, 300 nM, 1 μM, 3 μM, 10 μM, 30 μM and 100 μM. The highest content of DMSO (0.3%) was present in 100 μM.
The currents were evoked by applying 100 ms depolarizing pulses from −90 mV (holding potential) to +40 mV were applied with 0.1 Hz frequency. Control (compound-free) and compound pulse trains for each compound concentration applied contained 20 pulses.
10-second breaks were used between pulse trains (see Table 2 below).
Whole-cell current recordings and compound application were enabled by means of an automated patch clamp platform Patchliner (Nanion Technologies GmbH). EPC 10 patch clamp amplifier (HEKA Elektronik Dr. Schulze GmbH) along with Patchmaster software (HEKA Elektronik Dr. Schulze GmbH) was used for data acquisition. Data were sampled at 10 kHz without filtering. Passive leak currents were subtracted online using a P/4 procedure (HEKA Elektronik Dr. Schulze GmbH). Increasing compound concentrations were applied consecutively to the same cell without washouts in between. Total compound incubation time before the next pulse train was not longer than 10 seconds. Peak current inhibition was observed during compound equilibration.
(§2) AUC and peak values were obtained with Patchmaster (HEKA Elektronik Dr. Schulze GmbH). To determine IC50, the last single pulse in the pulse train corresponding to a given compound concentration was used. Obtained AUC and peak values in the presence of compound were normalized to control values in the absence of compound. Using Origin (OridinLab), IC50 was derived from data fit to Hill equation: Icompound/Icontrol=(100−A)/(1+([compound]/IC50)nH)+A, where IC50 value is the concentration at which current inhibition is half-maximal, [compound] is the applied compound concentration, A is the fraction of current that is not blocked and nH is the Hill coefficient.

hERG channel = biological target: T2, hERG channel (Homo sapiens, UniProt Q12809); assay: hERG electrophysiology, automated whole-cell patch clamp (Patchliner); assay type: cell-based
T2 construct: expressed in transfected cells
Description: This assay is used to evaluate the disclosed compounds' inhibition activities against the hERG channel.
CHO-K1 cells stably expressing hERG were grown in Ham's F-12 Medium with glutamine containing 10% heat-inactivated FBS, 1% penicillin/streptomycin, hygromycin (100 μg/ml) and G418 (100 μg/ml). Cells were grown in culture flasks at 37° C. in a 5% CO2-humidified incubator.
as §1
The voltage protocol (see Table 3) was designed to simulate voltage changes during a cardiac action potential with a 300 ms depolarization to +20 mV (analogous to the plateau phase of the cardiac action potential), a repolarization for 300 ms to −50 mV (inducing a tail current) and a final step to the holding potential of −80 mV. The pulse frequency was 0.3 Hz. Control (compound-free) and compound pulse trains for each compound concentration applied contained 70 pulses.
Whole-cell current recordings and compound application were enabled by means of an automated patch clamp platform Patchliner (Nanion). EPC 10 patch clamp amplifier (HEKA) along with Patchmaster software (HEKA Elektronik Dr. Schulze GmbH) was used for data acquisition. Data were sampled at 10 kHz without filtering. Increasing compound concentrations were applied consecutively to the same cell without washouts in between.
as §2, with “PEAK” for “peak”, “IC50” for “IC50,”, “Icompound/Icontrol=(100-A)/(1+([compound]/IC50)nH)+A,” for “Icompound/Icontrol=(100−A)/(1+([compound]/IC50)nH)+A,”, “IC50” for “IC50 value”

[1] = Kv1.3 potassium channel, whole-cell patch clamp
[2] = hERG channel, whole-cell patch clamp

T2 sequence (Q12809 whole entry): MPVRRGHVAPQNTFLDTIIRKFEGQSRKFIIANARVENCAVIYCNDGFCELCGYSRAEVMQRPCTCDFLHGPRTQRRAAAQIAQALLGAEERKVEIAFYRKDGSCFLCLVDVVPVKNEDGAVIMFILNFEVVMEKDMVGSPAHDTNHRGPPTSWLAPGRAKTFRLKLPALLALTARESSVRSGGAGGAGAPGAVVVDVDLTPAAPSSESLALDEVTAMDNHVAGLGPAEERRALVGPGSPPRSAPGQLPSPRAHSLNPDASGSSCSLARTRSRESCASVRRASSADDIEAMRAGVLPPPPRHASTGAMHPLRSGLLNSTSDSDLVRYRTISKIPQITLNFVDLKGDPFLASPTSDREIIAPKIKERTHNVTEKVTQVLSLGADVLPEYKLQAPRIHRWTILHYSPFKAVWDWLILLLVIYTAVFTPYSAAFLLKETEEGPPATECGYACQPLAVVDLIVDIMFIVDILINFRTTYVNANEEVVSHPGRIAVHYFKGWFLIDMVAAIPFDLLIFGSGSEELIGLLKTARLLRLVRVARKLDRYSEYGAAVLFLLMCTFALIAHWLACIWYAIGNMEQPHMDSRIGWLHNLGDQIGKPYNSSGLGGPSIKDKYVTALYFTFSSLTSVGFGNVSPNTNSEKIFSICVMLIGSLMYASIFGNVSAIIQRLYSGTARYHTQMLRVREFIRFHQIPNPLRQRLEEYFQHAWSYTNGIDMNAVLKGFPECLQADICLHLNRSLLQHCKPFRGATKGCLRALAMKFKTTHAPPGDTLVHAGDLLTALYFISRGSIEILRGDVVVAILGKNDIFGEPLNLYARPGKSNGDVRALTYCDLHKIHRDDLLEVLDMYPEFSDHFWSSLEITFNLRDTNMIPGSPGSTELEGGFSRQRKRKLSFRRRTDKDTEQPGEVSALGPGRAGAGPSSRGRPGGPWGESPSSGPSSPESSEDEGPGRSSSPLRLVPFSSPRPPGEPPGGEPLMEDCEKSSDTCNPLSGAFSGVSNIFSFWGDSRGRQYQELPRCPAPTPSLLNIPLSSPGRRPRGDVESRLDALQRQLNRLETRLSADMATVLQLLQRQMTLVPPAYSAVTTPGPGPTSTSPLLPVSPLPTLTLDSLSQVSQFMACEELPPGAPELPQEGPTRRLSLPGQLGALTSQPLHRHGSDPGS
T1 sequence (P22001 whole entry): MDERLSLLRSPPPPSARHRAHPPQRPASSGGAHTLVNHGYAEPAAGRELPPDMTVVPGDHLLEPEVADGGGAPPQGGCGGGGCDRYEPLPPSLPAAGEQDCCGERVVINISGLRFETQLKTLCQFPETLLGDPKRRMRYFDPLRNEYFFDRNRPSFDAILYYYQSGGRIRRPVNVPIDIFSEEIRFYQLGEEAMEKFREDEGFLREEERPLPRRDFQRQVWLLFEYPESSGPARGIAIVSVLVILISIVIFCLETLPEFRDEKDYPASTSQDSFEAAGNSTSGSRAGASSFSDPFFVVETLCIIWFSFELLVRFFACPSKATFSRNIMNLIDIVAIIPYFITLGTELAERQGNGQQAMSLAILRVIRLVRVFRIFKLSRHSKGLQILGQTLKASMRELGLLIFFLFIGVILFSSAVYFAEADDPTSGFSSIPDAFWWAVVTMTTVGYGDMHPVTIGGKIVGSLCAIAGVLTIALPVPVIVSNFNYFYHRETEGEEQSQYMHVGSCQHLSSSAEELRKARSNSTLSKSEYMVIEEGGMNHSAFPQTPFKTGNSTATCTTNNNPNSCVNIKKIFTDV

| SMILES | pIC50 (Kv1.3 potassium channel; [1]) | pIC50 (hERG channel; [2]) | pIC50 (Kv1.3 potassium channel; CHO-K1 cells stably expressing Kv1.3, 100 ms pulses from -90 mV to +40 mV, 0.1 Hz) | pIC50 (hERG channel; CHO-K1 cells stably expressing hERG, +20 mV 300 ms, -50 mV 300 ms tail current, 0.3 Hz) |
| --- | --- | --- | --- | --- |
| O=C1CN(C2CC[C@@H](O)[C@H]2O)C[C@@H]2C[C@H](c3c(O)ccc(Cl)c3Cl)CN12 (relative stereo) [Compound 136, (7R,8aS)-7-(2,3-dichloro-6-hydroxyphenyl)-2-[(2S,3R)-rel-2,3-dihydroxycyclopentyl]-hexahydropyrrolo [1,2-a]pyrazin-4-one] | > 6.00 | < 4.52 | – | – |
| O=C1CN([C@H]2COC[C@@H]2O)C[C@@H]2C[C@H](c3c(O)ccc(Cl)c3Cl)CN12 (relative stereo) [Compound 154, (7R,8aS)-7-(2,3-dichloro-6-hydroxyphenyl)-2-[(3S,4R)-rel-4-hydroxyoxolan-3-yl]-hexahydropyrrolo [1,2-a]pyrazin-4-one] | > 6.00 | < 4.52 | – | – |
| O=C1CN([C@@H]2COC[C@H]2O)C[C@@H]2C[C@H](c3c(O)ccc(Cl)c3Cl)CN12 (relative stereo) [Compound 155, (7R,8aS)-7-(2,3-dichloro-6-hydroxyphenyl)-2-[(3R,4S)-rel-4-hydroxyoxolan-3-yl]-hexahydropyrrolo[1,2-a]pyrazin-4-one] | > 6.00 | < 4.52 | – | – |
| O=C1CN([C@H]2CC[C@@H]2O)C[C@@H]2C[C@H](c3c(O)ccc(Cl)c3Cl)CN12 (relative stereo) [Compound 158, (7R,8aS)-7-(2,3-dichloro-6-hydroxyphenyl)-2-[(1R,2R)-rel-2-hydroxycyclobutyl]-hexahydropyrrolo[1,2-a]pyrazin-4-one] | > 6.00 | < 4.52 | – | – |
| O=C1CN([C@@H]2CC[C@H]2O)C[C@@H]2C[C@H](c3c(O)ccc(Cl)c3Cl)CN12 (relative stereo) [Compound 159, (7R,8aS)-7-(2,3-dichloro-6-hydroxyphenyl)-2-[(1S,2S)-rel-2-hydroxycyclobutyl]-hexahydropyrrolo[1,2-a]pyrazin-4-one] | > 6.00 | < 4.52 | – | – |
| C[C@H](O)[C@H](CO)N1CC(=O)N2C[C@@H](c3c(O)ccc(Cl)c3Cl)C[C@H]2C1 (relative stereo) [Compound 165, (7R,8aS)-7-(2,3-dichloro-6-hydroxyphenyl)-2-[(2S,3S)-rel-1,3-dihydroxybutan-2-yl]-hexahydropyrrolo[1,2-a]pyrazin-4-one] | > 6.00 | < 4.52 | – | – |
| C[C@@H](O)[C@@H](CO)N1CC(=O)N2C[C@@H](c3c(O)ccc(Cl)c3Cl)C[C@H]2C1 (relative stereo) [Compound 166, (7R,8aS)-7-(2,3-dichloro-6-hydroxyphenyl)-2-[(2R,3R)-rel-1,3-dihydroxybutan-2-yl]-hexahydropyrrolo[1,2-a]pyrazin-4-one] | > 6.00 | < 4.52 | – | – |
| O=C1C[C@H](O)[C@H](O)[C@@H]2C[C@H](c3c(O)ccc(Cl)c3Cl)CN12 (relative stereo) [Compound 225, (7S,8R)-rel-(2R, 8aS)-2-(2,3-dichloro-6-hydroxyphenyl)-7,8-dihydroxy-hexahydro-1H-indolizin-5-one] | > 6.00 | < 4.52 | – | – |
| O=C1[C@@H](CO)OC[C@@H]2C[C@H](c3c(O)ccc(Cl)c3Cl)CCN12 (single isomer, unassigned) [Compound 52] | – | – | > 6.00 | < 4.52 |
| O=C1CN(C[C@@H](O)CO)C[C@@H]2C[C@H](c3c(O)ccc(Cl)c3Cl)CN12 (single isomer, unassigned) [Compound 114] | > 6.00 | < 4.52 | – | – |
| C[C@H](CO)N1CC(=O)N2C[C@@H](c3c(O)ccc(Cl)c3Cl)C[C@H]2C1 (single isomer, unassigned) [Compound 116] | > 6.00 | < 4.52 | – | – |
| COC[C@H](CO)N1CC(=O)N2C[C@@H](c3c(O)ccc(Cl)c3Cl)C[C@H]2C1 (single isomer, unassigned) [Compound 118] | > 6.00 | < 4.52 | – | – |
| C[C@@H](C1CNC1)N1CC(=O)N2C[C@@H](c3c(O)ccc(Cl)c3Cl)C[C@H]2C1 (single isomer, unassigned) [Compound 137] | > 6.00 | < 4.52 | – | – |
| N[C@H]1CC(=O)N2C[C@@H](c3c(O)ccc(Cl)c3Cl)C[C@H]2C1 (single isomer, unassigned) [Compound 189] | > 6.00 | < 4.52 | – | – |
| N[C@@H]1CC(=O)N2C[C@@H](c3c(O)ccc(Cl)c3Cl)C[C@H]2C1 (single isomer, unassigned) [Compound 190] | > 6.00 | < 4.52 | – | – |
| O=C1C[C@H](N2CC[C@@H](O)C2)C[C@@H]2C[C@H](c3c(O)ccc(Cl)c3Cl)CN12 (single isomer, unassigned) [Compound 191] | > 6.00 | > 4.52 | – | – |
| O=C1C[C@@H](N2CC[C@@H](O)C2)C[C@@H]2C[C@H](c3c(O)ccc(Cl)c3Cl)CN12 (single isomer, unassigned) [Compound 192] | > 6.00 | < 4.52 | – | – |
| O=C1C[C@H](N2CC[C@H](O)C2)C[C@@H]2C[C@H](c3c(O)ccc(Cl)c3Cl)CN12 (single isomer, unassigned) [Compound 193] | > 6.00 | < 4.52 | – | – |
| O=C1C[C@@H](N2CC[C@H](O)C2)C[C@@H]2C[C@H](c3c(O)ccc(Cl)c3Cl)CN12 (single isomer, unassigned) [Compound 194] | > 6.00 | < 4.52 | – | – |
| O=C1C[C@@H](N2CC(O)C2)C[C@@H]2C[C@H](c3c(O)ccc(Cl)c3Cl)CN12 (single isomer, unassigned) [Compound 196] | > 6.00 | < 4.52 | – | – |
| O=C1C[C@H](N2CC(O)C2)C[C@@H]2C[C@H](c3c(O)ccc(Cl)c3Cl)CN12 (single isomer, unassigned) [Compound 197] | > 6.00 | < 4.52 | – | – |
| CN[C@@H]1CC(=O)N2C[C@@H](c3c(O)ccc(Cl)c3Cl)C[C@H]2C1 (single isomer, unassigned) [Compound 198] | > 6.00 | < 4.52 | – | – |
| CN[C@H]1CC(=O)N2C[C@@H](c3c(O)ccc(Cl)c3Cl)C[C@H]2C1 (single isomer, unassigned) [Compound 199] | > 6.00 | < 4.52 | – | – |
| CN(C)[C@@H]1CC(=O)N2C[C@@H](c3c(O)ccc(Cl)c3Cl)C[C@H]2C1 (single isomer, unassigned) [Compound 200] | > 6.00 | > 5.00 | – | – |
| CN(C)[C@H]1CC(=O)N2C[C@@H](c3c(O)ccc(Cl)c3Cl)C[C@H]2C1 (single isomer, unassigned) [Compound 201] | > 6.00 | > 5.00 | – | – |
| O=C1C[C@@H](NCCO)C[C@@H]2C[C@H](c3c(O)ccc(Cl)c3Cl)CN12 (single isomer, unassigned) [Compound 202] | > 6.00 | < 4.52 | – | – |
| O=C1C[C@H](NCCO)C[C@@H]2C[C@H](c3c(O)ccc(Cl)c3Cl)CN12 (single isomer, unassigned) [Compound 203] | > 6.00 | < 4.52 | – | – |
| CN(CCO)[C@@H]1CC(=O)N2C[C@@H](c3c(O)ccc(Cl)c3Cl)C[C@H]2C1 (single isomer, unassigned) [Compound 204] | > 6.00 | < 4.52 | – | – |
